Results taken from the kinase profiling compilation of Christmann-Franck et al. (2016).

Tests used:
Assay in all cases: radiometric filter-binding kinase assay, Kinase HotSpot
Conditions in all cases: compound 0.5 µM; ATP 10 µM
PIM2 (human) = PIM2 (human) (UniProt Q9P1W9)
TXK (human) = TXK (human) (UniProt P42681)
ROCK2 (human) = ROCK2 (human) (UniProt O75116)
MAP2K1 (human) = MAP2K1 (human) (UniProt Q02750)
CDC42BPB (human) = CDC42BPB (human) (UniProt Q9Y5S2)
DYRK1A (human) = DYRK1A (human) (UniProt Q13627)
STK3 (human) = STK3 (human) (UniProt Q13188)
IKBKB (human) = IKBKB (human) (UniProt O14920)
LRRK2 (human) = LRRK2 (human) (UniProt Q5S007)
CHUK (human) = CHUK (human) (UniProt O15111)
ERBB2 (human) = ERBB2 (human) (UniProt P04626)
CAMK1G (human) = CAMK1G (human) (UniProt Q96NX5)
RET (human) = RET (human) (UniProt P07949)
PRKCI (human) = PRKCI (human) (UniProt P41743)
FGR (human) = FGR (human) (UniProt P09769)
NTRK1 (human) = NTRK1 (human) (UniProt P04629)
ITK (human) = ITK (human) (UniProt Q08881)
EPHB3 (human) = EPHB3 (human) (UniProt P54753)
ADRBK1 (human) = ADRBK1 (human) (UniProt P25098)
ABL1 (human) = ABL1 (human) (UniProt P00519)
PDPK1 (human) = PDPK1 (human) (UniProt O15530)
PAK1 (human) = PAK1 (human) (UniProt Q13153)
NEK6 (human) = NEK6 (human) (UniProt Q9HC98)
SGK3 (human) = SGK3 (human) (UniProt Q96BR1)
DAPK3 (human) = DAPK3 (human) (UniProt O43293)
TNK2 (human) = TNK2 (human) (UniProt Q07912)
CDK1 CCNB1 (human) = CDK1 CCNB1 (human) (UniProt P06493+P14635)
ACVR1 (human) = ACVR1 (human) (UniProt Q04771)
STK10 (human) = STK10 (human) (UniProt O94804)
DYRK2 (human) = DYRK2 (human) (UniProt Q92630)
ULK1 (human) = ULK1 (human) (UniProt O75385)
NEK9 (human) = NEK9 (human) (UniProt Q8TD19)
ADRBK2 (human) = ADRBK2 (human) (UniProt P35626)
TSSK2 (human) = TSSK2 (human) (UniProt Q96PF2)

Sequence of ABL1 (human) (P00519 whole entry, looked up): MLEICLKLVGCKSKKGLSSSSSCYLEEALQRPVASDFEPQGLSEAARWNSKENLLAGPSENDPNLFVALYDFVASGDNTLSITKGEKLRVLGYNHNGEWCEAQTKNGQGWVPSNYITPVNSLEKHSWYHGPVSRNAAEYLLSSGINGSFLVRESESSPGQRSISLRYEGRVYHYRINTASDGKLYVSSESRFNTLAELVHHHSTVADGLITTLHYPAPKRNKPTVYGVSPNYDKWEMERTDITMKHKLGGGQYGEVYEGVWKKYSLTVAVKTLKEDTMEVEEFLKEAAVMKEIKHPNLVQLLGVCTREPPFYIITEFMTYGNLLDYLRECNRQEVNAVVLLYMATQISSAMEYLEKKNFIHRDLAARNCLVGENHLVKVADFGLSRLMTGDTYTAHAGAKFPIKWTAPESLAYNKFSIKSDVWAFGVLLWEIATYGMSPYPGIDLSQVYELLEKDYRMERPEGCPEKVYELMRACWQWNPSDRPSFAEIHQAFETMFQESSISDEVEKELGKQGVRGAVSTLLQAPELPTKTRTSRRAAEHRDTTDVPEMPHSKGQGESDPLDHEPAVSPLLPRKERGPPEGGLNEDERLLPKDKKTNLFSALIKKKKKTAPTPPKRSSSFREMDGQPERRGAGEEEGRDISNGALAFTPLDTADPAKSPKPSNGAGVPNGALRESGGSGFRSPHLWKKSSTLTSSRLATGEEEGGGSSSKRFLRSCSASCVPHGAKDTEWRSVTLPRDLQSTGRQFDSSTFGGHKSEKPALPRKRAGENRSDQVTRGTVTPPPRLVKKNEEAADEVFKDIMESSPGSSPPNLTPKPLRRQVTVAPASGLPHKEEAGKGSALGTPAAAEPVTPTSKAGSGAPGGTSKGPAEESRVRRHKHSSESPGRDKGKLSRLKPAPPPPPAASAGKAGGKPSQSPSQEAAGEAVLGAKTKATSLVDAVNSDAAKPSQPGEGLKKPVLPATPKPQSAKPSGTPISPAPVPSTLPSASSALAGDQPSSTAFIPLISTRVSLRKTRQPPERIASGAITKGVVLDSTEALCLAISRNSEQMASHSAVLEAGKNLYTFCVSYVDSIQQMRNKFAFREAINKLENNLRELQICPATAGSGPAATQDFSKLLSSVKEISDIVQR
Sequence of PDPK1 (human) (O15530 whole entry, looked up): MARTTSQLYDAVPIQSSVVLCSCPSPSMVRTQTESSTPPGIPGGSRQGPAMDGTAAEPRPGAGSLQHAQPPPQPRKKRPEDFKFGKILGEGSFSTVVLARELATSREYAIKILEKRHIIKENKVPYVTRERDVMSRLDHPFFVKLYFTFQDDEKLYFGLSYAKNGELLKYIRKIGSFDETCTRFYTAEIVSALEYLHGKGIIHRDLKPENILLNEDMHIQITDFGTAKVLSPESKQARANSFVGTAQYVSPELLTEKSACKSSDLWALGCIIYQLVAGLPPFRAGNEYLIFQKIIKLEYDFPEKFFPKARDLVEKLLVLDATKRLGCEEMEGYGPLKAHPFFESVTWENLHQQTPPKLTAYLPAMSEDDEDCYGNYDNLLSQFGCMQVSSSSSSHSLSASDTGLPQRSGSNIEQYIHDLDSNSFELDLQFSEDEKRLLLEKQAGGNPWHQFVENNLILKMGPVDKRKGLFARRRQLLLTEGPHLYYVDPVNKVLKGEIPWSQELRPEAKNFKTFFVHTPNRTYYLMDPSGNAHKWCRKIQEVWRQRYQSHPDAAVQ
Sequence of MAP2K1 (human) (Q02750 whole entry, looked up): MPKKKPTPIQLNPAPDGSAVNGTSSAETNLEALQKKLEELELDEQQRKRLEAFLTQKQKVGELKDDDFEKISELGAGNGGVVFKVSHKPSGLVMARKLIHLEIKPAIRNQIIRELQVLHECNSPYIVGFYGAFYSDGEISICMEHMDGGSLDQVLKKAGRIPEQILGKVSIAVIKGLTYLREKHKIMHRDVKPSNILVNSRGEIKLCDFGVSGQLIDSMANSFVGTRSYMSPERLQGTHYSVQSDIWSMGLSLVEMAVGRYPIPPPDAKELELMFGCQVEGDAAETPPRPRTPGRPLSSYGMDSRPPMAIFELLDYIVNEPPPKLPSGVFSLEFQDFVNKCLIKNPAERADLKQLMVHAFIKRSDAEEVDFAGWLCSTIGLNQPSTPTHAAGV
Sequence of FGR (human) (P09769 whole entry, looked up): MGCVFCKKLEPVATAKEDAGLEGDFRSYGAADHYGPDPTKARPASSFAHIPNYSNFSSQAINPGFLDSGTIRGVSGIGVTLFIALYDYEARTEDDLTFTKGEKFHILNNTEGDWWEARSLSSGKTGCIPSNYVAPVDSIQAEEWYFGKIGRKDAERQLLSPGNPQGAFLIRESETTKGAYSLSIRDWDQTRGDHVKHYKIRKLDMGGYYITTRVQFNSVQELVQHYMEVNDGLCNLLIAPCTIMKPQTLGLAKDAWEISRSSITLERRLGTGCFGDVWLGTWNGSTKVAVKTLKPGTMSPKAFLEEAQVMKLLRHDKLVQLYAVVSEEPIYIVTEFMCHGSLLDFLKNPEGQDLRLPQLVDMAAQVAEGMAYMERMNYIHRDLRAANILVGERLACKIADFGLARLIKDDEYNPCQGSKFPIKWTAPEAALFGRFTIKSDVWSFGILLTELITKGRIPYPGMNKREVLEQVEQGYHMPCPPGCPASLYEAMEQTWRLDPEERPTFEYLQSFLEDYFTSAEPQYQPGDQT
Sequence of CDK1 CCNB1 (human) (P06493 whole entry, looked up): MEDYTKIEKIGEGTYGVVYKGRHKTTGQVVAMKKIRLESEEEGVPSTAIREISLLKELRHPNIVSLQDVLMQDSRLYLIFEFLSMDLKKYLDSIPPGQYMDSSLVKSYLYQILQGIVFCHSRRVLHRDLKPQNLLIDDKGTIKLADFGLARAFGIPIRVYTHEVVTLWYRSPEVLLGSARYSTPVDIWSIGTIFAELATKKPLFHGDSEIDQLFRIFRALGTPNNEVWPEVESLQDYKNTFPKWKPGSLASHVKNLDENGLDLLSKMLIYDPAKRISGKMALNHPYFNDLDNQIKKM
Sequence of CDK1 CCNB1 (human) (P14635 whole entry, looked up): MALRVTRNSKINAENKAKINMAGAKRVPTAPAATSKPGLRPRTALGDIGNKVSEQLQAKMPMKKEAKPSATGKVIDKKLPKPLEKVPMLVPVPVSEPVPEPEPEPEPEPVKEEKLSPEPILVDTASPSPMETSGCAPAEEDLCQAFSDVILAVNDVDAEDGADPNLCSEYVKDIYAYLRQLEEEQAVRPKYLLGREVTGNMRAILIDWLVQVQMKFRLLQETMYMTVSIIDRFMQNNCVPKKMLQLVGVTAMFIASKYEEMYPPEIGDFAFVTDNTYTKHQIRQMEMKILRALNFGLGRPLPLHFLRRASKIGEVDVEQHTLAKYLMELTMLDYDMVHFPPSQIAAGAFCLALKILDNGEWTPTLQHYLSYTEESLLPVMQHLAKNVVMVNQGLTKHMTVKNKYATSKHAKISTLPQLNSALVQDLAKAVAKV
Sequence of ERBB2 (human) (P04626 whole entry, looked up): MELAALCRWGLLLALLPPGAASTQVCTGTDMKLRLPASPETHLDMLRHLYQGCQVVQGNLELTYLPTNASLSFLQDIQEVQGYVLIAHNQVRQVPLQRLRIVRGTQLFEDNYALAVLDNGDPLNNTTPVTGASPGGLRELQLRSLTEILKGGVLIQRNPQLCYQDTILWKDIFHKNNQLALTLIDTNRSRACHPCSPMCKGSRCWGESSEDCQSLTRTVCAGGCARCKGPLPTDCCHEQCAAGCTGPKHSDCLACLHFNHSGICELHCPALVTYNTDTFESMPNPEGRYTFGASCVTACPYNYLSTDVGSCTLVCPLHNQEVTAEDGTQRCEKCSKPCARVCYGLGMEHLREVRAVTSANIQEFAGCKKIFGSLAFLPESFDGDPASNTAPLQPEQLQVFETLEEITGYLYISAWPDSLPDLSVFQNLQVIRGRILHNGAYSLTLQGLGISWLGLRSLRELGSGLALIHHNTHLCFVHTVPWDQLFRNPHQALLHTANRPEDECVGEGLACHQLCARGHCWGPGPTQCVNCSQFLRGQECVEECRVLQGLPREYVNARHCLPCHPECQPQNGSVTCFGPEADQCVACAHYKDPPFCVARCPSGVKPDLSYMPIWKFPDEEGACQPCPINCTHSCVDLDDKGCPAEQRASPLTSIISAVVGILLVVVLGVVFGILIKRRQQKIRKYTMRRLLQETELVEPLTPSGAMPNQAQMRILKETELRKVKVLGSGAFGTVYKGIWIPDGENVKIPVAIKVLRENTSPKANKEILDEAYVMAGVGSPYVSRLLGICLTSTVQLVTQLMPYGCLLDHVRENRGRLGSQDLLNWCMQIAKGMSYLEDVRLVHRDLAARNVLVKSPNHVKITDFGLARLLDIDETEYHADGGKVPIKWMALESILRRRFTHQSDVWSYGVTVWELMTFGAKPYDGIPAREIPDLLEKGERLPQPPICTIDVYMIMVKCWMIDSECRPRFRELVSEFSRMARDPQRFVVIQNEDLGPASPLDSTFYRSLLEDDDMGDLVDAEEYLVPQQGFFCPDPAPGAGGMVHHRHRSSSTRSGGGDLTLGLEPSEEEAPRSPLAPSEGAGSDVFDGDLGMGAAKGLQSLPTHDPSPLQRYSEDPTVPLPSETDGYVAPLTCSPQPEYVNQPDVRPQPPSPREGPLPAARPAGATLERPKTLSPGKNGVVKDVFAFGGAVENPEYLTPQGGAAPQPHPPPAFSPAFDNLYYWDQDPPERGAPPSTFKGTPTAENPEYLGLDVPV
Sequence of DAPK3 (human) (O43293 whole entry, looked up): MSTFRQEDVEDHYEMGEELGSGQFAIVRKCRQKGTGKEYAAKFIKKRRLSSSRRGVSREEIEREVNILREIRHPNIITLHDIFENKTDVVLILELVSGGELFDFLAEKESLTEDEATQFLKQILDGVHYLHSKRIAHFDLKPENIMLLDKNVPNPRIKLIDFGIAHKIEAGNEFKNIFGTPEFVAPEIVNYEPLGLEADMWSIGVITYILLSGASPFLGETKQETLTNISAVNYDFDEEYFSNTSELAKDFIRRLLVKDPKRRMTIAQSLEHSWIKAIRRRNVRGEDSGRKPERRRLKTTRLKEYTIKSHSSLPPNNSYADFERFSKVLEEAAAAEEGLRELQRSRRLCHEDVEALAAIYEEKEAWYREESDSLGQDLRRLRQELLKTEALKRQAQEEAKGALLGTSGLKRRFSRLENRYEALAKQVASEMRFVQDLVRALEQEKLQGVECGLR

Structure (SMILES): CC(=O)O/N=C1\C(=C2\C(=O)Nc3cc(Br)ccc32)Nc2ccccc21
- residual activity (PIM2 (human)): 93.2%
- residual activity (TXK (human)): 46.4%
- residual activity (ROCK2 (human)): 91.7%
- residual activity (MAP2K1 (human)): 84.9%
- residual activity (CDC42BPB (human)): 94.7%
- residual activity (DYRK1A (human)): 111%
- residual activity (STK3 (human)): 39.5%
- residual activity (IKBKB (human)): 92.4%
- residual activity (LRRK2 (human)): 87.6%
- residual activity (CHUK (human)): 98.3%
- residual activity (ERBB2 (human)): 114%
- residual activity (CAMK1G (human)): 101%
- residual activity (RET (human)): 6.58%
- residual activity (PRKCI (human)): 74.3%
- residual activity (FGR (human)): 14.8%
- residual activity (NTRK1 (human)): 54.7%
- residual activity (ITK (human)): 76.8%
- residual activity (EPHB3 (human)): 94.2%
- residual activity (ADRBK1 (human)): 108%
- residual activity (ABL1 (human)): 43.1%
- residual activity (PDPK1 (human)): 88.2%
- residual activity (PAK1 (human)): 93.6%
- residual activity (NEK6 (human)): 100%
- residual activity (SGK3 (human)): 100%
- residual activity (DAPK3 (human)): 82.2%
- residual activity (TNK2 (human)): 74.7%
- residual activity (CDK1 CCNB1 (human)): 79.3%
- residual activity (ACVR1 (human)): 102%
- residual activity (STK10 (human)): 99.3%
- residual activity (DYRK2 (human)): 94.4%
- residual activity (ULK1 (human)): 95.6%
- residual activity (NEK9 (human)): 86.7%
- residual activity (ADRBK2 (human)): 95.7%
- residual activity (TSSK2 (human)): 101%

Structure (SMILES): CC(C)c1nn(-c2c(Cl)cccc2Cl)c2nc(Cc3ccc(OCCO)cc3)nc(O)c12
- residual activity (PIM2 (human)): 104%
- residual activity (TXK (human)): 101%
- residual activity (ROCK2 (human)): 92.5%
- residual activity (MAP2K1 (human)): 99.7%
- residual activity (CDC42BPB (human)): 105%
- residual activity (DYRK1A (human)): 105%
- residual activity (STK3 (human)): 93.5%
- residual activity (IKBKB (human)): 103%
- residual activity (LRRK2 (human)): 109%
- residual activity (CHUK (human)): 98.5%
- residual activity (ERBB2 (human)): 101%
- residual activity (CAMK1G (human)): 100%
- residual activity (RET (human)): 97.5%
- residual activity (PRKCI (human)): 95.2%
- residual activity (FGR (human)): 92%
- residual activity (NTRK1 (human)): 89%
- residual activity (ITK (human)): 98.6%
- residual activity (EPHB3 (human)): 92.6%
- residual activity (ADRBK1 (human)): 94.8%
- residual activity (ABL1 (human)): 95.6%
- residual activity (PDPK1 (human)): 94.9%
- residual activity (PAK1 (human)): 89.7%
- residual activity (NEK6 (human)): 105%
- residual activity (SGK3 (human)): 92.6%
- residual activity (DAPK3 (human)): 104%
- residual activity (TNK2 (human)): 98.9%
- residual activity (CDK1 CCNB1 (human)): -1.2%
- residual activity (ACVR1 (human)): 94.7%
- residual activity (STK10 (human)): 96.6%
- residual activity (DYRK2 (human)): 100%
- residual activity (ULK1 (human)): 125%
- residual activity (NEK9 (human)): 97.3%
- residual activity (ADRBK2 (human)): 87.9%
- residual activity (TSSK2 (human)): 105%

Structure (SMILES): O=C1NC(=O)C(c2cn(CCCO)c3ncccc23)=C1c1cnccn1
- residual activity (PIM2 (human)): 92.7%
- residual activity (TXK (human)): 75.3%
- residual activity (ROCK2 (human)): 96%
- residual activity (MAP2K1 (human)): 106%
- residual activity (DYRK1A (human)): 108%
- residual activity (STK3 (human)): 74.4%
- residual activity (IKBKB (human)): 87.3%
- residual activity (LRRK2 (human)): 90%
- residual activity (ERBB2 (human)): 106%
- residual activity (CAMK1G (human)): 101%
- residual activity (RET (human)): 54.5%
- residual activity (PRKCI (human)): 87%
- residual activity (FGR (human)): 108%
- residual activity (NTRK1 (human)): 88.1%
- residual activity (ITK (human)): 84.7%
- residual activity (EPHB3 (human)): 86.6%
- residual activity (ADRBK1 (human)): 114%
- residual activity (ABL1 (human)): 98.9%
- residual activity (PDPK1 (human)): 92.2%
- residual activity (PAK1 (human)): 101%
- residual activity (NEK6 (human)): 94.2%
- residual activity (SGK3 (human)): 124%
- residual activity (DAPK3 (human)): 80.2%
- residual activity (TNK2 (human)): 90.7%
- residual activity (CDK1 CCNB1 (human)): 81.1%
- residual activity (ACVR1 (human)): 97%
- residual activity (STK10 (human)): 104%
- residual activity (DYRK2 (human)): 81.7%
- residual activity (ULK1 (human)): 102%
- residual activity (NEK9 (human)): 93.4%
- residual activity (ADRBK2 (human)): 99.9%
- residual activity (TSSK2 (human)): 119%

Structure (SMILES): O=C1Nc2ccccc2/C1=C1/Nc2ccccc2/C1=N\OCCC(O)CO (stereo not drawn)
- residual activity (PIM2 (human)): 99.5%
- residual activity (TXK (human)): 25.6%
- residual activity (ROCK2 (human)): 91%
- residual activity (MAP2K1 (human)): 99.7%
- residual activity (CDC42BPB (human)): 96.6%
- residual activity (DYRK1A (human)): 82.8%
- residual activity (STK3 (human)): 4.81%
- residual activity (IKBKB (human)): 90.5%
- residual activity (LRRK2 (human)): 81.2%
- residual activity (CHUK (human)): 96.6%
- residual activity (ERBB2 (human)): 95.3%
- residual activity (CAMK1G (human)): 102%
- residual activity (RET (human)): 1.22%
- residual activity (PRKCI (human)): 100%
- residual activity (FGR (human)): 11.6%
- residual activity (NTRK1 (human)): 3.84%
- residual activity (ITK (human)): 34.8%
- residual activity (ADRBK1 (human)): 101%
- residual activity (ABL1 (human)): 71.9%
- residual activity (PDPK1 (human)): 83.3%
- residual activity (PAK1 (human)): 71.3%
- residual activity (NEK6 (human)): 96.3%
- residual activity (SGK3 (human)): 100%
- residual activity (DAPK3 (human)): 66.6%
- residual activity (TNK2 (human)): 4.93%
- residual activity (CDK1 CCNB1 (human)): 33.4%
- residual activity (ACVR1 (human)): 199%
- residual activity (STK10 (human)): 52.1%
- residual activity (DYRK2 (human)): 61.4%
- residual activity (ULK1 (human)): 98.3%
- residual activity (NEK9 (human)): 73.6%
- residual activity (ADRBK2 (human)): 100%
- residual activity (TSSK2 (human)): 96.2%
